Experiment: Determination of stability in upper digestive tract and simulated colonic release (SGF, SIF, SCF; dialysis bag, UV 230 nm)
Assay type: physicochemical
Conditions: cumulative release after SGF and SIF
Description: 6. Determination of Stability in Upper Digestive Tract and Simulated Colonic Release
A simulated gastric fluid (SGF, a pH of 1.2) consists of 2.95 g/L of sodium chloride and 8 ml/L of hydrochloric acid. A paclitaxel capsule (1 mg/ml of paclitaxel (dry weight)) is added to the SGF containing 3.2 g/L of pepsin and placed in a sealed dialysis bag (8,000-14,000 Da), then the dialysis bag is soaked in the SGF containing 3% (v/w) Tween-20 and stirred at 100 rpm at 37±0.5° C., and 2 ml of a release medium is withdrawn at 30 min, 60 min, 90 min, and 120 min respectively. An equal volume of the fresh SGF is added to maintain a volume after each sampling.
A pH value of the SGF system is adjusted to 6.8 with disodium hydrogen phosphate and a fresh porcine trypsin solution at 30 mg/mL is added into the dialysis bag to obtain a simulated intestinal fluid (SIF). 2 ml of a release medium is taken out at 30 min, 60 min, 90 min, and 120 min respectively and a concentration of paclitaxel is determined. An equal volume of the fresh release medium is added to maintain a volume after each sampling. […]
The concentration of paclitaxel is measured with an ultraviolet spectrophotometer at a wavelength of 230 nm.

- release amount (dissolution rate) in a stomach-small intestine: about 25%
SMILES: CC(=O)O[C@H]1C(=O)[C@@]2(C)[C@H]([C@H](OC(=O)c3ccccc3)[C@]3(O)C[C@H](OC(=O)[C@H](O)[C@@H](NC(=O)c4ccccc4)c4ccccc4)C(C)=C1C3(C)C)[C@]1(OC(C)=O)CO[C@@H]1C[C@@H]2O [raw paclitaxel, paclitaxel]

From US11771676B2, “Method for preparing high-load oral paclitaxel capsule for slow release in colon” (Jiangnan University, priority 2022, dated 2023)
